Literature values, collected in article PMC9851200, “Multiparameter phenotypic screening for endogenous TFEB and TFE3 translocation identifies novel chemical series modulating lysosome function” (Autophagy, 2022).

Assays:
Design in all cases: method as in original PKIS2 published data
[1] = target: T1, kinases (KINOMEscan panel) (Homo sapiens, UniProt O00329); conditions: Published KINOMEscan; ref original PKIS2 published data; cited from earlier work
T1 sequence (O00329 1-1044): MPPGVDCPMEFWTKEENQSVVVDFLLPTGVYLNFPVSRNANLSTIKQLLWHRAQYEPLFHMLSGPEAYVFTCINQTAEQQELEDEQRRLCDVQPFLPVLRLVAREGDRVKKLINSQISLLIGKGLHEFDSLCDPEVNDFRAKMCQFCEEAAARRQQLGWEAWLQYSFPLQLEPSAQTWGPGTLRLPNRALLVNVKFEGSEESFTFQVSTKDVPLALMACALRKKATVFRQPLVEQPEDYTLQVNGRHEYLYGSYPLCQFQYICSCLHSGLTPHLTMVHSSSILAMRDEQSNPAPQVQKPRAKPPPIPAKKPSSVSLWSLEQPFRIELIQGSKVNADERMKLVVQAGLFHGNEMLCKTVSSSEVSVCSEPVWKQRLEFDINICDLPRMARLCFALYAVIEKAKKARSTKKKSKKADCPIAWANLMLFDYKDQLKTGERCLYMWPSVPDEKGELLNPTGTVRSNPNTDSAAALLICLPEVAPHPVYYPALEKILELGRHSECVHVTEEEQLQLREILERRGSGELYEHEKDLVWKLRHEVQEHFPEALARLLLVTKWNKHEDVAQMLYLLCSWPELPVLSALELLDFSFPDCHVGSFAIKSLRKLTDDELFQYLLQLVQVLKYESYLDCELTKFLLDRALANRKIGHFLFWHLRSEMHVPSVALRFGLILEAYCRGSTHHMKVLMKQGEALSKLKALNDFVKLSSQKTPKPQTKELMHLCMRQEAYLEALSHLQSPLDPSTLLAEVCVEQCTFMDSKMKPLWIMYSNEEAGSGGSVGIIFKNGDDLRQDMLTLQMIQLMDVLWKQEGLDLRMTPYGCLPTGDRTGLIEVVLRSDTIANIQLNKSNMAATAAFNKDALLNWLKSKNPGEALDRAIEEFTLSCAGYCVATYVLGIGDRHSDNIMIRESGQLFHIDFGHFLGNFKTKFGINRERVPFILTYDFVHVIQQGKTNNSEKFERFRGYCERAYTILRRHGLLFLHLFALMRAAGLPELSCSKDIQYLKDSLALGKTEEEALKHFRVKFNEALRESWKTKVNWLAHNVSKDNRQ

[2] = target: kinases (KINOMEscan panel) (Homo sapiens, UniProt P49336); conditions: CDK8; Published KINOMEscan; ref original PKIS2 published data; cited from earlier work
[3] = target: T2, kinases (KINOMEscan panel) (Homo sapiens, UniProt Q06418); conditions: Published KINOMEscan; ref original PKIS2 published data; cited from earlier work
T2 sequence (Q06418 41-890): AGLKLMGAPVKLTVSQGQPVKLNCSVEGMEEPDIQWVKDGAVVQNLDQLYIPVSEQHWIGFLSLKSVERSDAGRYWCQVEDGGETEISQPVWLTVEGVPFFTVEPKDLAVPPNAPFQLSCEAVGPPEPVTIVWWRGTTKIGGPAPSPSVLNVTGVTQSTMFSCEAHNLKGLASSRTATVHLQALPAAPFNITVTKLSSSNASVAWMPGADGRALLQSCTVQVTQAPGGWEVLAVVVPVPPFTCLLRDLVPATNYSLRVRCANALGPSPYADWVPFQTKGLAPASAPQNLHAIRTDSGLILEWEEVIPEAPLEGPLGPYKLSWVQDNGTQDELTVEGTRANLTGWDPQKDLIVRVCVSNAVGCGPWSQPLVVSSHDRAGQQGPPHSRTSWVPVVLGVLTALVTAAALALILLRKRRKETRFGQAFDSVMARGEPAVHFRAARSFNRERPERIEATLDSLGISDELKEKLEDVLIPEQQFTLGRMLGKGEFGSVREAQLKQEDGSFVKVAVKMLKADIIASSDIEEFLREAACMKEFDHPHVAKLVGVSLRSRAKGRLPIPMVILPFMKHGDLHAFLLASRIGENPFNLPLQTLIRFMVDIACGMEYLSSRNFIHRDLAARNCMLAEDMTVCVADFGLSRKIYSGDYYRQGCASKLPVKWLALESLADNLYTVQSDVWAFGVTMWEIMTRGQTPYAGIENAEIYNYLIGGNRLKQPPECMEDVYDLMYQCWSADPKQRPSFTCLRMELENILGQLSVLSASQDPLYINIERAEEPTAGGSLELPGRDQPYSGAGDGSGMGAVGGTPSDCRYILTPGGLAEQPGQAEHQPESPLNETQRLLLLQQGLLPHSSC

[4] = target: kinases (KINOMEscan panel) (Homo sapiens, UniProt Q15375); conditions: EPHA7; Published KINOMEscan; ref original PKIS2 published data; cited from earlier work
[5] = target: kinases (KINOMEscan panel) (Homo sapiens, UniProt Q86UE8); conditions: kinase TLK2; Published KINOMEscan; ref original PKIS2 published data; cited from earlier work
[6] = target: kinases (KINOMEscan panel) (Homo sapiens, UniProt Q8N5S9); conditions: CAMKK1; Published KINOMEscan; ref original PKIS2 published data; cited from earlier work
[7] = target: kinases (KINOMEscan panel) (Homo sapiens, UniProt Q99558); conditions: kinase MAP3K14; Published KINOMEscan; ref original PKIS2 published data; cited from earlier work
Chain of kinases (KINOMEscan panel) (Homo sapiens, UniProt Q99558) (Q99558 whole entry): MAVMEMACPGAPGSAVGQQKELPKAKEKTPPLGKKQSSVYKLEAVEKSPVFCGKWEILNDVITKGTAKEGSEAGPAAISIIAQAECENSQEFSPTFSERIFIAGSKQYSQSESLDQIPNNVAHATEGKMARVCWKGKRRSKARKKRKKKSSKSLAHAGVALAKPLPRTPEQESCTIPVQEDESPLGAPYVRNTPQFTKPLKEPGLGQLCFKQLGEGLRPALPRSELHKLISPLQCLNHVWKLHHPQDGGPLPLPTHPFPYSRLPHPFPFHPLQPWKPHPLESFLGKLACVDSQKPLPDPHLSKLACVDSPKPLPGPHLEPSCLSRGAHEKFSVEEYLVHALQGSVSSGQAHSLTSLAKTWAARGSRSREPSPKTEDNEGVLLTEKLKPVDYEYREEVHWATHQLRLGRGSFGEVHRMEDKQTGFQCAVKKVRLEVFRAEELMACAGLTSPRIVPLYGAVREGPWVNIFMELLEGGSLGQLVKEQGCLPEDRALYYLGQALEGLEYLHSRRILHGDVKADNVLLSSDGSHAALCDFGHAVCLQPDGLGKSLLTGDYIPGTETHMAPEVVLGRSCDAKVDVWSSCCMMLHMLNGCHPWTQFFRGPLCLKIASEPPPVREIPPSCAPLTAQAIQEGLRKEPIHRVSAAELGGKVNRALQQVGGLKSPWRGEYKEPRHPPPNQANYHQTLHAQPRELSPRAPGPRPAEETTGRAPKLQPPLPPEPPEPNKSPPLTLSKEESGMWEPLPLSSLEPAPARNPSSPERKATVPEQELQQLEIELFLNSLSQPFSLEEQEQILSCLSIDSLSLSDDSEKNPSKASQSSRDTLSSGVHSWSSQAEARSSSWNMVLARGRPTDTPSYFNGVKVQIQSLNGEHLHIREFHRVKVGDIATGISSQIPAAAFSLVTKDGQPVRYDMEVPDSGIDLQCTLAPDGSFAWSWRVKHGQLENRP

Chain of kinases (KINOMEscan panel) (Homo sapiens, UniProt P49336) (P49336 whole entry): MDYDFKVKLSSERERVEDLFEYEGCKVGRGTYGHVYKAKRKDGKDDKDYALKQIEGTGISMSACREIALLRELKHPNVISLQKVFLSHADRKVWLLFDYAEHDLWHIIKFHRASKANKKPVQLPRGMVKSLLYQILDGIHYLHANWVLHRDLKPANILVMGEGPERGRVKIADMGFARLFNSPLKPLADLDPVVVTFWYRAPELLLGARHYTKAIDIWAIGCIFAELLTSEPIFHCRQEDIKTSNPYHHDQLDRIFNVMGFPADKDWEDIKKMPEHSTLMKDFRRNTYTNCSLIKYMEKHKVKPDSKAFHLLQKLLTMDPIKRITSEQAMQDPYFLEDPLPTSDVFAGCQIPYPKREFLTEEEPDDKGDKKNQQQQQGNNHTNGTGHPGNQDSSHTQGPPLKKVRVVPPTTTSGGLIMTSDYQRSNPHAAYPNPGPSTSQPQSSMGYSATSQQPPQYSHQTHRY
Chain of kinases (KINOMEscan panel) (Homo sapiens, UniProt Q86UE8) (Q86UE8 whole entry): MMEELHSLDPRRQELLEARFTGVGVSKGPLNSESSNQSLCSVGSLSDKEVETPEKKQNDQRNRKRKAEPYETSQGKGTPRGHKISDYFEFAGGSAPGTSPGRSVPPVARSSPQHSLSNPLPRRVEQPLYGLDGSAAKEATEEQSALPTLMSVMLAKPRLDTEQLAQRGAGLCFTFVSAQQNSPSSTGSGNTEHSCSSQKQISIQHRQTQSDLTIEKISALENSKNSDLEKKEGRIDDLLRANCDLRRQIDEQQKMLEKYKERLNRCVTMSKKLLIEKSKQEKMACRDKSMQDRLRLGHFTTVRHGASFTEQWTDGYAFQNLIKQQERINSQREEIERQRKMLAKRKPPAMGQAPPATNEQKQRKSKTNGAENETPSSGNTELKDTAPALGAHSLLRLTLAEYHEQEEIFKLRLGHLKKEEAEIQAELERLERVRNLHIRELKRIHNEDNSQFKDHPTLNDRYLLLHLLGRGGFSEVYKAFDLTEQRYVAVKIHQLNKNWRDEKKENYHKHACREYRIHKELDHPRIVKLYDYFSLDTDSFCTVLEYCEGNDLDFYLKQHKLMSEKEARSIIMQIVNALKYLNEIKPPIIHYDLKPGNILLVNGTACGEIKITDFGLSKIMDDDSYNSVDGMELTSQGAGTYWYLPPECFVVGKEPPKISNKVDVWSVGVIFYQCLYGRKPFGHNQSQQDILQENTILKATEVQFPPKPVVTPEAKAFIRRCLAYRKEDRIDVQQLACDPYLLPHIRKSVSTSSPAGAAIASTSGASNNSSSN
Chain of kinases (KINOMEscan panel) (Homo sapiens, UniProt Q8N5S9) (Q8N5S9 whole entry): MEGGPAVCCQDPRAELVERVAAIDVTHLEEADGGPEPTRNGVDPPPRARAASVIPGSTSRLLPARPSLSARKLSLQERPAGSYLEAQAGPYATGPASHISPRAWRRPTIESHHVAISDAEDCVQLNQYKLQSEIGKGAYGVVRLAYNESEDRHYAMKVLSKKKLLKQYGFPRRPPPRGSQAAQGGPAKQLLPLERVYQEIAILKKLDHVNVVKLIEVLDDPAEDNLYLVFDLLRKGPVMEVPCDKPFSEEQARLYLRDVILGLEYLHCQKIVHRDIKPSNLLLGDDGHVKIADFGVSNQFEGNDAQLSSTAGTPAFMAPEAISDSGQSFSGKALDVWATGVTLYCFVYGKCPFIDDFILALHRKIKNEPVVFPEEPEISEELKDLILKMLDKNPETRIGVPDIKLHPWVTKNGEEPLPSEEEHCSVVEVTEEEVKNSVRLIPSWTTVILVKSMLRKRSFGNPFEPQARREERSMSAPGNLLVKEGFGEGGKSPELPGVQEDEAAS
Chain of kinases (KINOMEscan panel) (Homo sapiens, UniProt Q15375) (Q15375 28-998): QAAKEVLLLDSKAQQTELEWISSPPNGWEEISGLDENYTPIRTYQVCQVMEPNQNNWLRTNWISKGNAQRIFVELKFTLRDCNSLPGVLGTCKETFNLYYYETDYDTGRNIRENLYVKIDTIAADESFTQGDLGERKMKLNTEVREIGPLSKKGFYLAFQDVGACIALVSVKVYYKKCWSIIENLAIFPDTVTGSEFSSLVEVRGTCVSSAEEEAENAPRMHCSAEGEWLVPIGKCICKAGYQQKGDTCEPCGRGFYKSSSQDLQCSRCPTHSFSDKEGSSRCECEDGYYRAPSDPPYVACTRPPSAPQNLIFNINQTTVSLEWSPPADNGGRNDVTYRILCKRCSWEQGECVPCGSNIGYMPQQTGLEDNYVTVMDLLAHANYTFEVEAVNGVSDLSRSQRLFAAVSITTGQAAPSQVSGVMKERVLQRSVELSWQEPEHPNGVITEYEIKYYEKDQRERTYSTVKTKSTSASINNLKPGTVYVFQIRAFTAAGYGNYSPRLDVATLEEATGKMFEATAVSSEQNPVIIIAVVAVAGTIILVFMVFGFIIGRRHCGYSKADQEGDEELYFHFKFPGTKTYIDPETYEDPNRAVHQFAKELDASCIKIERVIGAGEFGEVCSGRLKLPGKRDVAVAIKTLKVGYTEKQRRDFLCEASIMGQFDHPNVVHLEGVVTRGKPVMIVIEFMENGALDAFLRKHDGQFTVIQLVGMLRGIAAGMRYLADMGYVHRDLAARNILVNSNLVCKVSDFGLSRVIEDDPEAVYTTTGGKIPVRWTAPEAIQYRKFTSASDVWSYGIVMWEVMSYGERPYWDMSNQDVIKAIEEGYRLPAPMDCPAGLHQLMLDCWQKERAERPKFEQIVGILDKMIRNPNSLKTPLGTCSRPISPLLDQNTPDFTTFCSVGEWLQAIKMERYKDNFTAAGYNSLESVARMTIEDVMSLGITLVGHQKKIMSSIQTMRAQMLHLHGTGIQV

Cc1cccc(-c2nc(Nc3ccncc3)c3ccccc3n2)n1 [NK215]
KINOMEscan PIK3CD [1]: 0
KINOMEscan CDK8 [2]: 65
KINOMEscan TYRO3 [3]: 0
KINOMEscan EPHA7 [4]: 0
KINOMEscan TLK2 [5]: 0
KINOMEscan CAMKK1 [6]: 24
KINOMEscan MAP3K14 [7]: 0
